Source: patent publication US20250163048A1 (Tango Therapeutics, Inc., priority 2022, published 2025)
Like-named read-outs stand apart in the source and are kept apart here.

How the values were obtained:
[1] = system: HAP1 MTAP-intact cell line; test: SDMA in-cell western assay, HAP1 MTAP-intact; details: Homo sapiens
[2] = system: HAP1 MTAP-deleted cell line; test: SDMA in-cell western assay, HAP1 MTAP-deleted; details: for IC50 / IC90: Homo sapiens; for Hap1 MTAP intact/deleted ratio: IC50 ratio between HAP1 MTAP-intact and HAP1 MTAP-deleted cell line
MTAP-deleted cell line = test: viability assay for the MTAP-deleted cell line; format: cell-based; details: Homo sapiens, HAP1, viability assay
[3] = HAP1, read-out: Hap1 MTAP intact IC50, SDMA in-cell western, HAP1 MTAP-intact cell line
[4] = HAP1, read-out: Hap1 MTAP deleted IC50, SDMA in-cell western, HAP1 MTAP-deleted cell line
[5] = HAP1, read-out: Hap1 MTAP deleted IC90, SDMA in-cell western, HAP1 MTAP-deleted cell line
[6] = HAP1, read-out: Hap1 MTAP intact IC50
[7] = HAP1, read-out: Hap1 MTAP deleted IC50, SDMA in-cell western assay, HAP1 MTAP-deleted cell line
[8] = HAP1, read-out: Hap1 MTAP deleted IC90, SDMA in-cell western assay, HAP1 MTAP-deleted cell line

IC50 [1, 3] [µM]	IC50 [2, 4] [µM]	IC90 [2, 5] [µM]	IC50 ([1]; HAP1, read-out: Hap1 MTAP intact IC50, SDMA in-cell western assay, HAP1 MTAP-intact cell line) [µM]	SMILES	Hap1 MTAP intact/deleted ratio ([2]; SDMA in-cell western)	IC50 (MTAP-deleted cell line) [µM]	IC50 [1, 6] [µM]	IC50 [2, 7] [µM]	IC90 [2, 8] [µM]	Hap1 MTAP intact/deleted ratio ([2]; SDMA in-cell western assay)
> 0.05	0.005 to 0.05	< 0.075		C[C@H]1CC[C@H](c2ccc(OC3CCN(C)CC3)cc2)N(C(=O)C(=O)Nc2cnc(N)c3cn[nH]c23)C1 [Compound 175, N-(4-amino-1H-pyrazolo[4,3-c]pyridin-7-yl)-2-((2R,5S)-5-methyl-2-(4-((1-methylpiperidin-4-yl)oxy)phenyl)piperidin-1-yl)-2-oxoacetamide]	B (“B” indicates an IC50 ratio greater than or equal to 15 fold but lower than 30 fold)	< 0.1				
> 0.05	< 0.005	< 0.075		C[C@H]1CC[C@H](c2ccc3cc(C#N)c(C4CCN(C)CC4)nc3c2)N(C(=O)C(=O)Nc2cncc3cn[nH]c23)C1 [Compound 176, 2-((2R,5S)-2-(3-cyano-2-(1-methylpiperidin-4-yl)quinolin-7-yl)-5-methylpiperidin-1-yl)-2-oxo-N-(1H-pyrazolo[4,3-c]pyridin-7-yl)acetamide]	B (“B” indicates an IC50 ratio greater than or equal to 15 fold but lower than 30 fold)	< 0.1				
> 0.05	0.005 to 0.05	> 0.125		C[C@@H]1CC[C@H](c2ccnn2C)N(C(=O)C(=O)Nc2cnc(N)c3cn[nH]c23)C1 [Compound 178]	C (“C” indicates an IC50 ratio of less than 15 fold)	0.1 to 1				
0.005 to 0.05	< 0.005	< 0.075		Cc1nc2cc([C@H]3CC[C@H](C)CN3C(=O)C(=O)Nc3cnc(N)c4cn[nH]c34)ccc2s1 [Compound 181, N-(4-amino-1H-pyrazolo[4,3-c]pyridin-7-yl)-2-((2R,5S)-5-methyl-2-(2-methylbenzo[d]thiazol-5-yl)piperidin-1-yl)-2-oxoacetamide]	C (“C” indicates an IC50 ratio of less than 15 fold)	< 0.1				
> 0.05	< 0.005	< 0.075		C[C@H]1CC[C@H](c2ccc3sc(C4=CCN(C)CC4)nc3c2)N(C(=O)C(=O)Nc2cncc3cn[nH]c23)C1 [Compound 182, 2-((2R,5S)-5-methyl-2-(2-(1-methyl-1,2,3,6-tetrahydropyridin-4-yl)benzo[d]thiazol-5-yl)piperidin-1-yl)-2-oxo-N-(1H-pyrazolo[4,3-c]pyridin-7-yl)acetamide]	A (“A” indicates an IC50 ratio greater than or equal to 30 fold)	< 0.1				
> 0.05	< 0.005	< 0.075		C[C@H]1CC[C@H](c2ccccc2)N(C(=O)C(=O)Nc2cnc(N)c3c2cnn3C)C1 [Compound 194, N-(7-amino-1-methyl-1H-pyrazolo[3,4-c]pyridin-4-yl)-2-((2R,5S)-5-methyl-2-phenylpiperidin-1-yl)-2-oxoacetamide]	B (“B” indicates an IC50 ratio greater than or equal to 15 fold but lower than 30 fold)	< 0.1				
			0.005 to 0.05	C[C@H]1CC[C@H](c2cccc(CCN(C)C)c2)N(C(=O)C(=O)Nc2cnc(N)c3c2cnn3C)C1 [Compound 197, N-(7-Amino-1-methyl-pyrazolo[3,4-c]pyridin-4-yl)-2-oxo-2-[(2R,5S)-2-[3-[2-(dimethylamino)ethyl]phenyl]-5-methyl-1-piperidyl]acetamide]		< 0.1		< 0.005	< 0.075	C (“C” indicates an IC50 ratio of less than 15 fold)

The next lines start with the compound.

SMILES	IC50 [1, 3] [µM]	IC50 [2, 4] [µM]	IC90 [2, 5] [µM]	IC50 ([1]; HAP1, read-out: Hap1 MTAP intact IC50, SDMA in-cell western assay, HAP1 MTAP-intact cell line) [µM]	Hap1 MTAP intact/deleted ratio ([2]; SDMA in-cell western)	IC50 (MTAP-deleted cell line) [µM]	IC50 [1, 6] [µM]	IC50 [2, 7] [µM]	IC90 [2, 8] [µM]	Hap1 MTAP intact/deleted ratio ([2]; SDMA in-cell western assay)
C[C@H]1CC[C@H](c2ccc3cn(CCN(C)C)nc3c2)N(C(=O)C(=O)Nc2cncc3cn[nH]c23)C1 [Compound 163, 2-oxo-N-(1H-pyrazolo[4,3-c]pyridin-7-yl)-2-[(2R,5S)-2-[2-[2-(dimethylamino)ethyl]indazol-6-yl]-5-methyl-1-piperidyl]acetamide]	> 0.05	< 0.005	< 0.075		A (“A” indicates an IC50 ratio greater than or equal to 30 fold)	< 0.1				
C[C@H]1CC[C@H](c2cccc(OC[C@H](C)N(C)C)c2)N(C(=O)C(=O)Nc2cnc(N)c3cn[nH]c23)C1 [Compound 164, N-(4-amino-1H-pyrazolo[4,3-c]pyridin-7-yl)-2-((2R,5S)-2-(3-((S)-2-(dimethylamino)propoxy)phenyl)-5-methylpiperidin-1-yl)-2-oxoacetamide]	0.005 to 0.05	< 0.005	< 0.075		C (“C” indicates an IC50 ratio of less than 15 fold)	< 0.1				
CC1=C(c2nc3cc([C@H]4CC[C@H](C)CN4C(=O)C(=O)Nc4cncc5cn[nH]c45)ccc3s2)CCN(C)C1 [Compound 165]	> 0.05	< 0.005	< 0.075		A (“A” indicates an IC50 ratio greater than or equal to 30 fold)	< 0.1				
C[C@H]1CC[C@H](c2cccc(OCCN(C)C)c2)N(C(=O)C(=O)Nc2cnc(N)c3cn[nH]c23)C1 [Compound 166, N-(4-amino-1H-pyrazolo[4,3-c]pyridin-7-yl)-2-((2R,5S)-2-(3-(2-(dimethylamino)ethoxy)phenyl)-5-methylpiperidin-1-yl)-2-oxoacetamide]	0.005 to 0.05	< 0.005	< 0.075		C (“C” indicates an IC50 ratio of less than 15 fold)	< 0.1				
Cc1ncc([C@H]2CC[C@H](C)CN2C(=O)C(=O)Nc2cnc(N)c3cn[nH]c23)cc1Cl [Compound 168]	> 0.05	< 0.005	< 0.075		C (“C” indicates an IC50 ratio of less than 15 fold)	< 0.1				
C[C@H]1CC[C@H](c2ccc3ccc(C4CCN(C)CC4)nc3c2)N(C(=O)C(=O)Nc2ccn3ccnc3c2)C1 [Compound 170, N-(imidazo[1,2-a]pyridin-7-yl)-2-((2R,5S)-5-methyl-2-(2-(1-methylpiperidin-4-yl)quinolin-7-yl)piperidin-1-yl)-2-oxoacetamide]	> 0.05	0.005 to 0.05	> 0.125		A (“A” indicates an IC50 ratio greater than or equal to 30 fold)	< 0.1				
C[C@H]1CC[C@H](c2ccc3scnc3c2)N(C(=O)C(=O)Nc2cnc(N)c3[nH]ncc23)C1 [Compound 174, N-(7-amino-1H-pyrazolo[3,4-c]pyridin-4-yl)-2-((2R,5S)-2-(benzo[d]thiazol-5-yl)-5-methylpiperidin-1-yl)-2-oxoacetamide]		< 0.005	< 0.075		C (“C” indicates an IC50 ratio of less than 15 fold)	< 0.1	0.005 to 0.05			
C[C@H]1CC[C@H](c2ccc3scnc3c2)N(C(=O)C(=O)Nc2cnc(N)c3c2cnn3C)C1 [Compound 199, N-(7-Amino-1-methyl-pyrazolo[3,4-c]pyridin-4-yl)-2-oxo-2-[(2R,5S)-2-(1,3-benzothiazol-5-yl)-5-methyl-1-piperidyl]acetamide]						< 0.1	0.005 to 0.05	< 0.005	< 0.075	C (“C” indicates an IC50 ratio of less than 15 fold)
